Experimental data reported in patent US7919255B2, “Assessment of skeletal growth using measurements of NT-CNP peptides” (priority 2003, dated 2011).

How the values were obtained:
J39 antisera = experiment: Cross reactivities of the NT-CNP radioimmunoassay using the J39 antisera; type: binding, rabbit; details: NT-CNP RIA
Method: Antiserum production: Human NT-CNP(1-15) (5 mg) was conjugated to 4.2 mg of bovine serum albumin (BSA, fraction V, GibcoBRL, Life Technologies) using 62.2 mg of 1-ethyl-3(3-dimethyaminopropyl) carbodiimide at pH 7 for 18 hours and dialysed against phosphate buffered saline. Rabbits were given a primary subcutaneous injection of the antigen after emulsification with an equal volume of complete Freunds adjuvant (Sigma Chemical Co., St Lois. Mo., USA). Subsequent injections using incomplete Freunds reagent were given at monthly intervals. Rabbits were bled two weeks after each injection and tested for binding of radioactive tracer and its displacement by NT-CNP (1-15) standards.
RIA for N-terminal CNP: NT-CNP(1-15)-Tyr^16 (5 μg) was iodinated using 0.5 mCi Na^125I in the presence of 10 μg chloramine-T in 5 μl 0.5M phosphate buffer, pH 7.5 for 30 seconds, followed by the addition of 50 μg cysteine, 25 μg BSA and 20 μg KI in 100 μl buffer. The resulting mixture was loaded onto a 10 m RP300 Brownlee column and eluted with a gradient from 0-60% acetonitrile in 49 mM KH2PO4 pH 2.9 over 30 min at 1 ml/min, collecting 0.5 ml fractions. The fraction containing the major peak of radioactive NT-CNP(1-15)-[^125I]Tyr^16 was used in the RIA. Peptide standards were made from synthetic human NT-CNP(1-19) taking into account the purity data supplied. […]

12 week old lambs = experiment: Dexamethasone 0.25 mg/kg/day for 4 days in 12 week old lambs; type: in vivo, sheep; details: after 48 hours of dexamethasone treatment
Method: (§1) FIG. 11A and FIG. 11B: Effect of 4 days of treatment with a glucocorticoid (dexamethasone, 0.25 mg/kg/day) in 12 week old lambs (filled circles, n=8) and in adult sheep (open circles, n=8) on (A) plasma NT-CNP and (B) change (?) in plasma alkaline phosphatase activity (ALP). Values are mean±SEM;
(§2) This differential response to dexamethasone was highly significant for both NT-CNP (F=5.4, p<0.001) and ALP (F=4.1, p=0.002). After 48 hours of dexamethasone treatment, plasma NT-CNP in lambs fell 30.8±3.5% from basal compared with 17.7±2.7% in adult sheep. Both the onset and offset of dexamethasone's action on NT-CNP preceded that of ALP (FIG. 11A and FIG. 11B).

adult sheep = experiment: Dexamethasone 0.25 mg/kg/day for 4 days in adult sheep; type: in vivo; details: after 48 hours of dexamethasone treatment
Method: as §1, §2

4 week old lambs = experiment: Dexamethasone 0.25 mg/kg/day for 15 days in 4 week old lambs versus saline; type: in vivo, sheep
Method: FIG. 12A, FIG. 12B, FIG. 12C and FIG. 12D: Effect of a glucocorticoid (dexamethasone, 0.25 mg/kg/day) (filled circles, n=8) or saline control treatment (open circles, n=8), administered to 4 week old lambs for 15 days, on (FIG. 12A) plasma NT-CNP (FIG. 12B) plasma alkaline phosphatase activity (FIG. 12C) metacarpal length and (FIG. 12D) body weight. Values are mean±SEM; and
In order to study a possible linkage between changes in NT-CNP and growth velocity, a more prolonged study was undertaken in younger growing lambs.
We undertook a study in normal lambs. Lambs (n=16, aged 4 weeks) either received dexamethasone (0.25 mg/kg/day) or saline injections (controls) for 15 days. The predictive effect of a plasma NT-CNP concentration (drawn 24 hours after starting treatment) on subsequent growth inhibition (defined as growth velocity less than 5% of that of control lambs) was examined by ROC curve analysis (FIG. 13). […] The area under the curve (AUC) was 0.85.

[1] = molecular target: antiserum J39, raised in rabbits to a synthetic peptide corresponding to the first 15 amino acids of human ProCNP(1-103), conjugated to BSA; experiment: competitive radioimmunoassay: NT-CNP(1-19) standards displace NT-CNP(1-15)-[125I]Tyr16 from antiserum J39
[2] = molecular target: antiserum J39, raised in rabbits to a synthetic peptide corresponding to the first 15 amino acids of human ProCNP(1-103), conjugated to BSA; experiment: competitive radioimmunoassay with J39 antiserum
[3] = 4 week old lambs, 0.25 mg/kg/day for 15 days

hproBNP(1-21): peptide tested for cross reactivity in the NT-CNP radioimmunoassay
Cross reactivity (J39 antisera): < 0.4%

hBNP32: peptide tested for cross reactivity in the NT-CNP radioimmunoassay
Cross reactivity (J39 antisera): < 0.05%

C[C@@H]1C[C@H]2[C@@H]3CCC4=CC(=O)C=C[C@]4(C)[C@@]3(F)[C@@H](O)C[C@]2(C)[C@@]1(O)C(=O)CO [dexamethasone]
fall in plasma NT-CNP from basal (12 week old lambs): 30.8±3.5%
fall in plasma NT-CNP from basal (adult sheep): 17.7±2.7%
effect on metacarpal elongation (4 week old lambs; [3]): pronounced decrease
time for NT-CNP to return to control levels after cessation of treatment (4 week old lambs; [3]): ≤ 24 h
time to fall in NT-CNP after starting treatment (4 week old lambs; [3]): ≤ 24 h
effect on body weight (4 week old lambs; 4 week old lambs, compared with saline treated lambs): small but significant effect
body weight difference between treatment groups at cessation of treatment (4 week old lambs; day 15, dexamethasone versus saline): not significantly different

KPGAPPKVPRTPPAEELAE [human NT-CNP(1-19)]
ED50 [1]: 0.11 nM

GLSKGCFGLKLDRIGSMSGLGC [hCNP-22]
cross reactivity [2]: < 0.03%

B1: hCNP-53 (peptide)
peptide: DLRVDTKSRAAWARLLQEHPNARKYKGANKKGLSKGCFGLKLDRIGSMSGLGC
cross reactivity [2]: < 0.07%
